# Reference: the supplement of paper PMC10307832
# Key:
# Experiment in all cases: relative viability (nuclei count vs DMSO), 5 days (fraction); higher = more cells survive
# NCI-H647 = test system: NCI-H647
# Procedure, shortened: (§1)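 For relative viability, nuclei counts in treated wells were divided by those in vehicle wells. Lung cancer cell lines had been pin-tool dosed in 1536-well plates the day after seeding and cultured for 5 days, then fixed and stained in one step (final 0.05% Triton X-100, 1% formaldehyde, 1 ug/ml Hoechst) and imaged at 4×. Doses were one drug alone or a fixed anchor-drug dose plus five library-drug doses (not always all listed) in √10 steps, and values are duplicate-plate medians.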
# HOP-62 = test system: HOP-62
# Procedure, shortened: as §1
# NCI-H1915 = test system: NCI-H1915
# Procedure, shortened: as §1
# LCLC-97TM1 = test system: LCLC-97TM1
# Procedure, shortened: as §1
# NCI-H2023 = test system: NCI-H2023
# Procedure, shortened: as §1
# SW 1573 = test system: SW 1573
# Procedure, shortened: as §1
# NCI-H1993 = test system: NCI-H1993
# Procedure, shortened: as §1
# NCI-H2347 = test system: NCI-H2347
# Procedure, shortened: as §1
# NCI-H2126 = test system: NCI-H2126
# Procedure, shortened: as §1
# SK-LU-1 = test system: SK-LU-1
# Procedure, shortened: as §1
# NCI-H727 = test system: NCI-H727
# Procedure, shortened: as §1
# LXF-289 = test system: LXF-289
# Procedure, shortened: as §1
# NCI-H322M = test system: NCI-H322M
# Procedure, shortened: as §1
# NCI-H1650 = test system: NCI-H1650
# Procedure, shortened: as §1
# PC-14 = test system: PC-14
# Procedure, shortened: as §1
# NCI-H2342 = test system: NCI-H2342
# Procedure, shortened: as §1
# EPLC-272H = test system: EPLC-272H
# Procedure, shortened: as §1
# NCI-H2009 = test system: NCI-H2009
# Procedure, shortened: as §1
# EMC-BAC-2 = test system: EMC-BAC-2
# Procedure, shortened: as §1
# H3255 = test system: H3255
# Procedure, shortened: as §1
# NCI-H661 = test system: NCI-H661
# Procedure, shortened: as §1
# NCI-H2085 = test system: NCI-H2085
# Procedure, shortened: as §1
smiles,measurement,setting,value
NC(=O)Nc1cc(-c2cccc(F)c2)sc1C(=O)N[C@H]1CCCNC1 [AZD7762] + CC(=O)c1c(C)c2cnc(Nc3ccc(N4CCNCC4)cn3)nc2n(C2CCCC2)c1=O [Palbociclib] (partner 0.5 µM),relative viability,NCI-H647; first compound 0.01 µM,0.434
same,relative viability,NCI-H647; first compound 0.03162 µM,0.424
same,relative viability,NCI-H647; first compound 0.1 µM,0.359
same,relative viability,NCI-H647; first compound 0.3162 µM,0.163
same,relative viability,NCI-H647; first compound 1 µM,0.125
same,relative viability,HOP-62; first compound 0.01 µM,0.476
same,relative viability,HOP-62; first compound 0.03162 µM,0.394
same,relative viability,HOP-62; first compound 0.1 µM,0.545
same,relative viability,HOP-62; first compound 0.3162 µM,0.484
same,relative viability,HOP-62; first compound 1 µM,0.487
same,relative viability,NCI-H1915; first compound 0.01 µM,0.552
same,relative viability,NCI-H1915; first compound 0.03162 µM,0.608
same,relative viability,NCI-H1915; first compound 0.1 µM,0.606
same,relative viability,NCI-H1915; first compound 0.3162 µM,0.617
same,relative viability,NCI-H1915; first compound 1 µM,0.563
same,relative viability,LCLC-97TM1; first compound 0.01 µM,0.214
same,relative viability,LCLC-97TM1; first compound 0.03162 µM,0.221
same,relative viability,LCLC-97TM1; first compound 0.1 µM,0.253
same,relative viability,LCLC-97TM1; first compound 0.3162 µM,0.28
same,relative viability,LCLC-97TM1; first compound 1 µM,0.274
same,relative viability,NCI-H2023; first compound 0.01 µM,0.402
same,relative viability,NCI-H2023; first compound 0.03162 µM,0.377
same,relative viability,NCI-H2023; first compound 0.1 µM,0.219
same,relative viability,NCI-H2023; first compound 0.3162 µM,0.162
same,relative viability,NCI-H2023; first compound 1 µM,0.095
same,relative viability,SW 1573; first compound 0.01 µM,0.424
same,relative viability,SW 1573; first compound 0.03162 µM,0.453
same,relative viability,SW 1573; first compound 0.1 µM,0.466
same,relative viability,SW 1573; first compound 0.3162 µM,0.377
same,relative viability,SW 1573; first compound 1 µM,0.314
same,relative viability,NCI-H1993; first compound 0.01 µM,0.84
same,relative viability,NCI-H1993; first compound 0.03162 µM,0.648
same,relative viability,NCI-H1993; first compound 0.1 µM,0.709
same,relative viability,NCI-H1993; first compound 0.3162 µM,0.589
same,relative viability,NCI-H1993; first compound 1 µM,0.652
same,relative viability,NCI-H2347; first compound 0.01 µM,0.542
same,relative viability,NCI-H2347; first compound 0.03162 µM,0.469
same,relative viability,NCI-H2347; first compound 0.1 µM,0.479
same,relative viability,NCI-H2347; first compound 0.3162 µM,0.509
same,relative viability,NCI-H2347; first compound 1 µM,0.461
same,relative viability,NCI-H2126; first compound 0.01 µM,0.353
same,relative viability,NCI-H2126; first compound 0.03162 µM,0.363
same,relative viability,NCI-H2126; first compound 0.1 µM,0.346
same,relative viability,NCI-H2126; first compound 0.3162 µM,0.369
same,relative viability,NCI-H2126; first compound 1 µM,0.397
same,relative viability,SK-LU-1; first compound 0.01 µM,0.364
same,relative viability,SK-LU-1; first compound 0.03162 µM,0.418
same,relative viability,SK-LU-1; first compound 0.1 µM,0.365
same,relative viability,SK-LU-1; first compound 0.3162 µM,0.232
same,relative viability,SK-LU-1; first compound 1 µM,0.232
same,relative viability,NCI-H727; first compound 0.01 µM,0.693
same,relative viability,NCI-H727; first compound 0.03162 µM,0.669
same,relative viability,NCI-H727; first compound 0.1 µM,0.669
same,relative viability,NCI-H727; first compound 0.3162 µM,0.642
same,relative viability,NCI-H727; first compound 1 µM,0.559
same,relative viability,LXF-289; first compound 0.01 µM,0.569
same,relative viability,LXF-289; first compound 0.03162 µM,0.689
same,relative viability,LXF-289; first compound 0.1 µM,0.628
same,relative viability,LXF-289; first compound 0.3162 µM,0.679
same,relative viability,LXF-289; first compound 1 µM,0.668
same,relative viability,NCI-H322M; first compound 0.01 µM,0.477
same,relative viability,NCI-H322M; first compound 0.03162 µM,0.517
same,relative viability,NCI-H322M; first compound 0.1 µM,0.465
same,relative viability,NCI-H322M; first compound 0.3162 µM,0.523
same,relative viability,NCI-H322M; first compound 1 µM,0.441
same,relative viability,NCI-H1650; first compound 0.01 µM,0.367
same,relative viability,NCI-H1650; first compound 0.03162 µM,0.397
same,relative viability,NCI-H1650; first compound 0.1 µM,0.344
same,relative viability,NCI-H1650; first compound 0.3162 µM,0.314
same,relative viability,NCI-H1650; first compound 1 µM,0.176
same,relative viability,PC-14; first compound 0.01 µM,0.601
same,relative viability,PC-14; first compound 0.03162 µM,0.469
same,relative viability,PC-14; first compound 0.1 µM,0.326
same,relative viability,PC-14; first compound 0.3162 µM,0.203
same,relative viability,PC-14; first compound 1 µM,0.0753
same,relative viability,NCI-H2342; first compound 0.01 µM,0.492
same,relative viability,NCI-H2342; first compound 0.03162 µM,0.513
same,relative viability,NCI-H2342; first compound 0.1 µM,0.447
same,relative viability,NCI-H2342; first compound 0.3162 µM,0.483
same,relative viability,NCI-H2342; first compound 1 µM,0.505
same,relative viability,EPLC-272H; first compound 0.01 µM,0.325
same,relative viability,EPLC-272H; first compound 0.03162 µM,0.297
same,relative viability,EPLC-272H; first compound 0.1 µM,0.351
same,relative viability,EPLC-272H; first compound 0.3162 µM,0.307
same,relative viability,EPLC-272H; first compound 1 µM,0.362
same,relative viability,NCI-H2009; first compound 0.01 µM,0.155
same,relative viability,NCI-H2009; first compound 0.03162 µM,0.214
same,relative viability,NCI-H2009; first compound 0.1 µM,0.221
same,relative viability,NCI-H2009; first compound 0.3162 µM,0.175
same,relative viability,NCI-H2009; first compound 1 µM,0.13
same,relative viability,EMC-BAC-2; first compound 0.01 µM,0.555
same,relative viability,EMC-BAC-2; first compound 0.03162 µM,0.527
same,relative viability,EMC-BAC-2; first compound 0.1 µM,0.537
same,relative viability,EMC-BAC-2; first compound 0.3162 µM,0.554
same,relative viability,EMC-BAC-2; first compound 1 µM,0.541
same,relative viability,H3255; first compound 0.01 µM,0.329
same,relative viability,H3255; first compound 0.03162 µM,0.312
same,relative viability,H3255; first compound 0.1 µM,0.362
same,relative viability,H3255; first compound 0.3162 µM,0.366
same,relative viability,H3255; first compound 1 µM,0.35
same,relative viability,NCI-H661; first compound 0.01 µM,0.447
same,relative viability,NCI-H661; first compound 0.03162 µM,0.456
same,relative viability,NCI-H661; first compound 0.1 µM,0.497
same,relative viability,NCI-H661; first compound 0.3162 µM,0.461
same,relative viability,NCI-H661; first compound 1 µM,0.344
same,relative viability,NCI-H2085; first compound 0.01 µM,0.478
same,relative viability,NCI-H2085; first compound 0.03162 µM,0.458
same,relative viability,NCI-H2085; first compound 0.1 µM,0.494
same,relative viability,NCI-H2085; first compound 0.3162 µM,0.483
same,relative viability,NCI-H2085; first compound 1 µM,0.544
